One series relates to P. chrysosporium. As to the kind of experiment: Mineralization of 14C-labeled dyes by shaken cultures. It counts as cell-based, Phanerochaete chrysosporium. The settings on record: for Percentage of radioactivity recovered in CO2, P. chrysosporium / Percentage of radioactivity recovered in biomass (cells), P. chrysosporium / Percentage of radioactivity removed from the medium, P. chrysosporium: 21 days' growth, 200 mg/liter. The protocol: (§1) Agitated cultures containing 100,000 to 150,000 dpm of azo dye at a concentration of 200 mg/liter for P. chrysosporium and 50 mg/liter for S. chromofuscus were incubated at 37° C. for 20 days with shaking at 200 rpm. For each mineralization experiment six replicates-per-culture were run for P. chrysosporium and three replicates-per-culture for S. chromofuscus. Each culture flask contained a CO2 trap consisting of a small glass cup connected to the bottom of the rubber stopper. The cup contained 1 ml of 1N NaOH. Samples were taken every 2 days, and after each sampling cultures were flushed with 100% oxygen for 30 s. At the sampling time, the stopper was removed and the NaOH containing trapped CO2 was transferred to a 20-ml scintillation vial, and the cup was then rinsed twice with 1 ml of water. Two ml of rinse water were also transferred to the vial. Finally, 10 ml of Ecolite scintillation cocktail (ICN Biochemicals Inc., Irvine, Calif.) were added to each vial. Vials, after mixing, were stored in the dark for 24 h. The cpm of trapped radioactivity was then determined in a Packard Tri-Carb liquid scintillation analyzer, Model 1500, using the ^14 C quench standards and SIS numbers.
Either a charcoal-containing polyurethane sponge (Bio-Rad Laboratories, Richmond, Calif.) or 2-methoxyethanol was used to trap volatile organic compounds released during mineralization experiments. The sponge (1 cm^3) replaced the 1N NaOH solution in the small glass cap attached to the rubber stopper; other conditions were as before for the ^14 CO2 experiments. For scintillation counting, the charcoal sponges were dissolved in 1 ml of hyamine hydroxide contained in scintillation vials (1M solution in methanol; NEN Research Products, Boston, Mass.) held at 55° C. for 2 h. Ten ml of Ecolite scintillation cocktail were then added and the cpm was measured.
In the second procedure, cultures with CO2 traps were flushed with oxygen for 10 min, and the organic volatiles present were trapped in 10 ml of 2-methoxyethanol mixed with 10 ml Ecolite.
(§2) The removal of radioactivity from the media was determined by measuring the amount of ^14 C label in 0.1 ml of the medium at time 0 and 21 days for each culture. Uninoculated cultures were used as evaporation controls. […] At the end of each mineralization experiment, culture broths were acidified with 5 ml of 1M H3 PO4, fresh 1N NaOH was added to the trap, and the cultures were shaken overnight. No additional releases of ^14 CO2 were observed. The radioactivity assimilated by the cells was measured by solubilizing biomass harvested from each 21-day-old culture in an equal volume of hyamine hydroxide solution. Before solubilization, cells were washed three times with 50 ml of distilled water to remove adsorbed dyes. Ecolite 10 ml was added to the mixture, which was vortexed vigorously. To increase counting efficiency, the solution of biomass-hyamine-scintillation cocktail was further diluted 10 to 20 times with fresh Ecolite before counting.

In the next series the test system is ligninase. Briefly: Oxidation of dyes by P. chrysosporium ligninase (crude preparation). It counts as biochemical, Phanerochaete chrysosporium. In outline:
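Crude P. chrysosporium ligninase oxidation of dyes, assayed by a previously reported method; conditions as for acid yellow 9, readings every 30 s for up to 15 minutes.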

The test system of series [1] is Phanerochaete chrysosporium. Briefly: Substrate removal / decolorization by P. chrysosporium culture. It counts as cell-based. The settings on record: for % Decolorization, P. chrysosporium: 14 days. As to the method: Environ. Microbiol., 1981, 42:290-296), with the addition of 75 mg adenine (6-aminopurine) and 27 mg L-phenylalanine-per-liter. This addition accelerated the growth of the fungus without inhibiting ligninase activity. […] […] Cultures were incubated at 37° C. for 7 to 15 days with shaking (250 rpm). Solid agar media were also employed.

The test system of series [2] is Mn(II)-peroxidase. As to the kind of experiment: Oxidation of dyes by P. chrysosporium Mn(II)-peroxidase. It counts as biochemical, Phanerochaete chrysosporium.
For series [3], the system named is Streptomyces chromofuscus. Briefly: Mineralization of 14C-labeled dyes by shaken cultures. It counts as cell-based. As to the method: as §1, §2
For the next series, the system named is soil microflora. As to the kind of experiment: Degradation of azo dyes by soil microflora. It counts as cell-based. The settings on record: water from a soil sample; for Dye mineralized by soil microflora: 14CO2 trapped; for Dye transformed by soil microflora: carbon source, air flow. As to the method: The degradation of azo dyes by soil microflora in general was evaluated by forming a mixture of azo dyes 33 and 34 with water from a soil sample. The soil sample contained soil microflora that had not adapted to using azo dyes as substrates. A carbon source was added to the mixture and a continuous air flow through the mixture was maintained. The ^14 CO2 released by the mixture was trapped using a 1N NaOH.

For series [4], the system named is lignin peroxidase (ligninase, LiP). As to the kind of experiment: Oxidation of azo dyes and veratryl alcohol by pure lignin peroxidase. It counts as biochemical, Phanerochaete chrysosporium. The following applies: for Oxidation by ligninase after VA was added: with veratryl alcohol; for Oxidation by ligninase without VA: without veratryl alcohol. The protocol:
Lignin peroxidase activity was determined spectrophotometrically at room temperature with VA as substrate. One unit (U) of enzyme activity was defined as 1 μmole of veratryl aldehyde formed-per-min at pH 3. Simultaneous oxidations of azo dyes and veratryl alcohol were measured using a Hewlett-Packard 8452 diode array spectrophotometer operated in the kinetic mode by a Vectra PC equipped with MS™-DO/UV-VIS software. Azo dye concentrations were determined by measuring absorbances at appropriate maxima.
After six days of growth, when the specific activity of ligninase reached about 250 U-per-liter, culture filtrates were separated from mycelial debris by filtration. One liter of culture filtrate was concentrated to about 10 ml using an Amicon PM-10 membrane and desalted in 10 mM sodium acetate buffer (pH 6) using a Sephadex G25 NAP10 column. Ligninase isoenzyme was separated from Mn-dependent peroxidases using a Pharmacia fast protein liquid chromatography system equipped with a Mono Q HR 5/5 column. In this study isoforms H2 and H8 were used.
In vitro studies were limited to dyes 24 and 28. […] FIGS. 6A and 7A show the simultaneous oxidation of azo dyes 24 and 28, respectively, and VA by ligninase. Without VA, azo dye oxidation was limited and terminated more rapidly than in the presence of VA (FIGS. 6B and 7B). When a dye was present in a reaction mixture, the rate of VA oxidation decreased due to an apparent competition for LiPI between these two compounds. The oxidation rate of VA recovered when the azo dye oxidation was completed (FIG. 8). The maximal rate of VA oxidation was about 159 AU (absorption change per-min-per-ml of ligninase solution). Wavelengths of 310 nm for VA, 506 nm for dye 24, and 430 nm for dye 28 oxidations were used in monitoring substrate removal. The oxidation of azo dyes is stimulated by VA in high (200 μM) and low (20 μM) H2 O2 concentrations.

Series [5] has as its system P. chrysosporium ligninolytic culture. It counts as cell-based, Phanerochaete chrysosporium. The settings on record: ten days of growth; for Dye remaining in the cultures, HPLC / Dye remaining in the cultures, Spectrophotometry: initial 200 mg-per-liter; for Bleaching of cultures: 200 mg-per-liter. As to the method: Decolorization of dyes in cultures were monitored at their absorption maxima at pH 4.5, or using HPLC. A Spherisorb ODS2 C18 column was used for HPLC analysis with a sequence of DMS buffer at pH 4.5 and acetonitrile as solvents (5 min 100% DMS, 15 min 100% acetonitrile, 18 min 100% acetonitrile, 19 min 100% DMS, 20 min 100% DMS, 5 min postran 100% DMS). Peaks were monitored at 260 and 450 nm. Results from spectrophotometric and HPLC methods were compared.
The initial concentration of dye was 200 mg-per-liter. Numbers represent mg-per-liter of dye remaining in the cultures.

Series [6] relates to Mn(II)-peroxidase. As to the kind of experiment: Oxidation of dyes by P. chrysosporium Mn(II)-peroxidase. It counts as biochemical, Phanerochaete chrysosporium. The following applies: crude enzyme, conditions specific for Mn(II)-peroxidase.
Series [7] deals with S. chromofuscus A11 extracellular peroxidase. Briefly: Oxidation of azo dyes by S. chromofuscus A11 crude enzyme preparation. It counts as biochemical, Streptomyces chromofuscus A11. The following applies: pH 8, 37° C., H2O2. In outline:
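Enzyme from 48 h S. chromofuscus A11 culture supernatant, concentrated, ammonium sulfate-precipitated, dialyzed in 20 mM HEPES pH 8; yellow Sephadex G-25 fraction used. Reaction started with 100 μl 50 mM H2O2, followed 1 min at 37° C; controls without H2O2 or with 25 μM KCN.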

Series [8] deals with T1, horseradish peroxidase type II (Armoracia rusticana, UniProt P00433).
T1 sequence (P00433 31-338): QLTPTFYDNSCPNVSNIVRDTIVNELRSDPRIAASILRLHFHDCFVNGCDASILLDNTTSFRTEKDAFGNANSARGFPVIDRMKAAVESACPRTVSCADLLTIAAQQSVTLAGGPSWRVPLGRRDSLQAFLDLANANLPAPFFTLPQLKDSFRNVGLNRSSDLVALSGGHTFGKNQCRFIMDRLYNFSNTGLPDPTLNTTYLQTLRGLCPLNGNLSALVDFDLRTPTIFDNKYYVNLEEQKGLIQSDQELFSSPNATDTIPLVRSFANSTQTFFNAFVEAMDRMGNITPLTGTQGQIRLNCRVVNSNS
As to the kind of experiment: Oxidation of azo dyes by horseradish peroxidase preparation. It counts as biochemical. The settings on record: pH 8, 37° C., H2O2. As to the method:
The reaction was started with the addition of 100 μl of 50 mM H2 O2 and was followed for 1 min at 37° C. Controls were run with no addition of H2 O2 or with the addition of the hemeperoxidase inhibitor KCN (final concentration 25 μM).

For `Nc1ccc(N=Nc2ccc(S(=O)(=O)O)cc2)cc1S(=O)(=O)O` [Azo dye 18, 4-amino-1,1'-azobenzene-3,4'-disulfonic acid], in the series on P. chrysosporium, the “Percentage of radioactivity recovered in CO2, P. chrysosporium” value is listed as 26.9%; the “Percentage of radioactivity recovered in biomass (cells), P. chrysosporium” value came to 2.3%; the “Percentage of radioactivity removed from the medium, P. chrysosporium” value turned out to be 33.0%. Also, the “Amount of dye decolorized by ligninase” value in the series on ligninase (out of 10 micrograms, 15 minutes, pH3, 0.6 units of enzyme) is “about 3 micrograms”. Further, the “Percent substrate removed, P. chrysosporium” value in [1] (p. chrysosporium culture, 168 h) is 79%. Moreover, the “Oxidation by manganese peroxidase” value with Mn(II)-peroxidase [2] (15-minute incubation period) is listed as “not detected”. Besides, in [3] (21 days' growth, 50 mg/liter), the “Percentage of radioactivity recovered in CO2, Streptomyces chromofuscus” value came to 0.0%; the “Percentage of radioactivity recovered in biomass (cells), Streptomyces chromofuscus” value was found to be 0.0%; the “Percentage of radioactivity removed from the medium, Streptomyces chromofuscus” value is on record as 0.0%.
In the case of `COc1cc(N=N[14c]2[14cH][14cH][14c](S(=O)(=O)O)[14cH][14cH]2)ccc1O` [compound 34], in the series with P. chrysosporium, the “Percentage of radioactivity recovered in CO2, P. chrysosporium” value turned out to be 25.7%; the “Percentage of radioactivity recovered in biomass (cells), P. chrysosporium” value is 5.2%; the “Percentage of radioactivity removed from the medium, P. chrysosporium” value worked out at 31.7%. The “Mineralization rate relative to dyes 33 and 35” value with P. chrysosporium (first 10 days of incubation) is “twice as fast”. Besides, in the series on soil microflora, the “Dye mineralized by soil microflora” value is listed as 14% and the “Dye transformed by soil microflora” value came out at 46%. The “Mineralization by the streptomycetes” value in series [3] (21-day incubation) is “mineralized”. Also, in series [3] (21 days growth of S. chromofuscus), the “Radioactivity accounted for by dye absorbed by the cells” value is on record as 9%. Besides, in series [3] (21 days' growth, 50 mg/liter), the “Percentage of radioactivity recovered in CO2, Streptomyces chromofuscus” value is on record as roughly 4% and the “Percentage of radioactivity recovered in biomass (cells), Streptomyces chromofuscus” value is given as 4.6%.
For the compound `COc1ccc(CO)cc1OC` [Veratryl alcohol, 3,4-dimethoxy benzyl alcohol, reference compound], the “Maximal rate of VA oxidation by ligninase” value in series [4] (absorption change per-min-per-ml of ligninase solution, 310 nm) is “about 159 AU”.
For the compound `O=S(=O)(O)c1ccc(N=Nc2ccc(N=Nc3c(O)ccc4ccccc34)c(S(=O)(=O)O)c2)cc1` [compound 24], in series [4], the “Oxidation by ligninase after VA was added” value was “total decolorization” and the “Oxidation by ligninase without VA” value is given as “limited extent”. Further, in series [5], the “Dye remaining in the cultures, HPLC” value amounted to 4.43 mg-per-liter; the “Dye remaining in the cultures, Spectrophotometry” value is listed as 1.11 mg-per-liter; the “Bleaching of cultures” value is “completely bleached”.
Regarding `Nc1ccc(N=N[14c]2[14cH][14cH][14c](S(=O)(=O)O)[14cH][14cH]2)cc1S(=O)(=O)O` [compound 33], in the series on soil microflora, the “Dye mineralized by soil microflora” value is listed as 1.1% and the “Dye transformed by soil microflora” value is on record as 3.4%.
Consider `O=C(O)c1nn(-c2ccc(S(=O)(=O)O)cc2)c(O)c1N=Nc1ccc(S(=O)(=O)O)cc1` [compound 28], for which, in series [4], the “Oxidation by ligninase after VA was added” value is “total decolorization” and the “Oxidation by ligninase without VA” value is reported as “limited extent”. Moreover, in series [5], the “Dye remaining in the cultures, HPLC” value turned out to be 3.00 mg-per-liter; the “Dye remaining in the cultures, Spectrophotometry” value is 2.42 mg-per-liter; the “Bleaching of cultures” value is “completely bleached”.
On to `COc1cc(N=Nc2ccc(N=Nc3ccc(S(=O)(=O)O)cc3)cc2S(=O)(=O)O)ccc1O` [compound 1], for which, in the series with Mn(II)-peroxidase [6], the “Oxidation rate of azo dyes, P. chrysosporium Mn-peroxidase” value is 3.06 μmoles per minute per ml. For the same compound, in the series on ligninase (crude enzyme, conditions specific for ligninase), the “Oxidation rate of azo dyes, P. chrysosporium Ligninase” value was determined as 0.44 μmoles per minute per ml. Moreover, the “Oxidation / decolorization by ligninase” value in the series on ligninase (pH3, 0.2 mM hydrogen peroxide, 15-minute incubation) was “not detected”. Also, the “Oxidation rate of azo dyes, S. chromofuscus peroxidase” value in [7] was determined as 1.78 μmoles per minute per ml. The “Degradation by Phanerochaete fungus” value in [1] (growth period of seven days, starting dye 150-200 ppm (FIG. 3), 10080 min) came out at 90%. Also, the entries for the “% Decolorization, P. chrysosporium” value in series [1] (initial concn 150 ppm) and in series [1] (initial concn 300 ppm) were 99% and 62%, respectively. Further, the “Oxidation rate of azo dyes, Horseradish peroxidase” value in series [8] is 8.24 μmoles per minute per ml. Also, the “Degradation by manganese peroxidase (HPLC, words)” value in the series on Mn(II)-peroxidase [2] (one hour incubation) is “almost completely degraded”.

For the origin of these results see US5618726A, “Biodegradable azo dyes” (priority 1994, dated 1997).
